Test results taken from patent publication US8871767B2, “2-arylimidazo[1,2-B]pyridazine, 2-phenylimidazo[1,2-A]pyridine, and 2-phenylimidazo[1,2-A]pyrazine derivatives” (Hengrui (USA) Ltd., priority 2010, dated 2014).
Like-named read-outs stand apart in the source and are kept apart here.

Tests used:
[1] = tested on: Hedgehog pathway activation (GLi-luciferase reporter) in Shh Light II reporter cells; assay: Hedgehog pathway activation on Shh Light II reporter cells measured by luciferase activity; assay type: cell-based; details: Mus musculus, Shh Light II
Outline: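 Shh Light II reporter cells carrying a hedgehog-responsive GLi-luciferase reporter were stimulated either with 500 nM SAG, a direct Smoothened agonist, or with conditioned media containing human Sonic Hedgehog (hShh). Test compounds were evaluated for blocking this pathway activation, quantified by luciferase activity. Cell viability was monitored in parallel with the Celltiter-Blue® assay.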

[2] = tested on: Hedgehog pathway activation on 10T1/2/Smo#3 cells (C3H10T1/2 cells transfected with human Smoothened receptor); assay: Hedgehog pathway activation on 10T1/2/Smo#3 cells measured by ALP activity; assay type: cell-based; details: Mus musculus, C3H 10T1/2, 10T1/2/Smo#3 cells
Protocol: Hedgehog conditioned media was obtained by transfecting 293H cells with the full length gene encoding human Sonic Hedgehog (hShh) inserted into the pCMV6 expression vector, which contains a neomycin selectable marker and expresses the protein of interest with a C-terminal FLAG affinity tag. After selection in G418 containing media, conditioned media from Hedgehog expressing clones were tested for the ability to activate the hedgehog-responsive GLi-luciferase reporter in the Shh Light II cell line obtained by license from John Hopkins University (Taipale J, et al. Effects of oncogenic mutations in Smoothened and Patched can be reversed by cyclopamine. Nature 406: 1005-1009, 2000).
C3H10T1/2 cells were transfected with a pCMV expression vector containing the full length gene sequence encoding the human Smoothened receptor. Pooled cells, designated 10T1/2/Smo#3, growing in G418 selection media responded to activation by 10-20% conditioned hShh media with an approximate 5-10 fold increase in alkaline phosphaste (ALP) activity over untransfected parent C3H10T1/2 cells as measured by the conversion of the free acid of 4-methylumbelliferyl phosphate to a fluorescent product.
A test compound library was screened against hShh and 500 nM SAG (a direct agonist of the Smoothened receptor) activated 10T1/2/Smo#3 cells and Shh Light II reporter cells for the ability to block Hedgehog pathway activation. Concurrently, cell viability was measured by utilizing Celltiter-Blue® (Promega, Madison Wis.) viability assay. Active compounds were defined as those that inhibited Hedgehog signaling by greater than 50% with no concurrent loss in cell viability.
Their inhibitory activity against Hedgehog pathway activation on 10T1/2/Smo#3 cells as measured by ALP activity and Shh Light II reporter cells as measured by luciferase activity is shown in Table 1 below. In Table 1, +++ stands for an IC50 value that is less than 0.3 μM, ++ between 0.3 and 3 μM, + between 3 and 30 μM.
Additional data for compounds of the invention is shown below in Table 2. Their inhibitory activities against Hedgehog pathway activation are shown as IC50 values in μM on 10T1/2/Smo#3 cells as measured by ALP activity, or on Shh Light II reporter cells as measured by luciferase activity (hShh activation).

[3] = SAG activation (500 nM SAG), read-out: Shh Light II luciferase activity (SAG activation)
[4] = hShh activation, read-out: Shh (IC50, inhibition of Hedgehog pathway activation)
[5] = hShh activation, read-out: Shh Light II luciferase activity (hShh activation)
[6] = hShh activation, ALP activity, read-out: 10T1/2/Smo#3 ALP activity (hShh Activation)
[7] = measured by ALP activity, read-out: ALP (IC50, inhibition of Hedgehog pathway activation)

Cc1cc(Cl)c(-c2cn3nc(-c4cccnc4C(F)(F)F)ccc3n2)cc1NC(=O)C(C)(C)C [Example 639, N-(4-chloro-2-methyl-5-(6-(2-(trifluoromethyl)pyridin-3-yl)imidazo[1,2-b]pyridazin-2-yl)phenyl)pivalamide]
IC50 [1, 3]: < 0.3 µM
IC50 [1, 4]: 0.03 µM
IC50 [1, 5]: < 0.3 µM
IC50 [2, 6]: < 0.3 µM
IC50 [2, 7]: 0.055 µM

CC(C)(C)C(=O)Nc1cc(-c2cn3nc(N4CCC(F)(F)C4)ccc3n2)ccc1C(F)(F)F [Example 236, N-(5-(6-(3,3-difluoropyrrolidin-1-yl)imidazo[1,2-b]pyridazin-2-yl)-2-(trifluoromethyl)phenyl)pivalamide]
IC50 [1, 4]: 0.289 µM
IC50 [2, 7]: 0.1 µM

COc1ccc(-c2ccc3nc(-c4ccc(C(F)(F)F)c(NC(=O)C(C)(C)C)c4)cn3n2)cc1 [Example 244, N-(5-(6-(4-methoxyphenyl)imidazo[1,2-b]pyridazin-2-yl)-2-(trifluoromethyl)phenyl)pivalamide]
IC50 [1, 4]: 0.308 µM
IC50 [2, 7]: 1.63 µM

COc1ncccc1-c1ccc2nc(-c3ccc(C(F)(F)F)c(NC(=O)C(C)(C)C)c3)cn2n1 [Example 175, N-(5-(6-(2-methoxypyridin-3-yl)imidazo[1,2-b]pyridazin-2-yl)-2-(trifluoromethyl)phenyl)pivalamide]
IC50 [1, 4]: 0.799 µM
IC50 [2, 7]: 0.513 µM

Cc1ccc(-c2cn3nc(N4CC[C@@H](N(C)C)C4)ccc3n2)cc1NC(=O)C(C)(C)C [Example 472, (R)-N-(5-(6-(3-(dimethylamino)pyrrolidin-1-yl)imidazo[1,2-b]pyridazin-2-yl)-2-methylphenyl)pivalamide]
IC50 [1, 4]: 0.084 µM
IC50 [2, 7]: 0.11 µM

CC(C)(C)C(=O)Nc1cc(-c2cn3nc(N4CCC(O)CC4)ccc3n2)ccc1C1CC1 [Example 273, N-(2-cyclopropyl-5-(6-(4-hydroxypiperidin-1-yl)imidazo[1,2-b]pyridazin-2-yl)phenyl)pivalamide]
IC50 [1, 3]: 3 to 30 µM
IC50 [1, 5]: 3 to 30 µM
IC50 [2, 6]: 0.3 to 3 µM
IC50 [2, 7]: 0.442 µM

CC(C)(C)C(=O)Nc1cc(-c2cn3nc(-c4ccccc4OC(F)(F)F)ccc3n2)ccc1C(F)(F)F [Example 240, N-(5-(6-(2-(trifluoromethoxy)phenyl)imidazo[1,2-b]pyridazin-2-yl)-2-(trifluoromethyl)phenyl)pivalamide]
IC50 [1, 4]: 0.326 µM
IC50 [2, 7]: 0.07 µM

COc1ncc(-c2ccc3nc(-c4ccc(C(F)(F)F)c(NC(=O)C(C)(C)C)c4)cn3n2)cn1 [Example 373, N-(5-(6-(2-methoxypyrimidin-5-yl)imidazo[1,2-b]pyridazin-2-yl)-2-(trifluoromethyl)phenyl)pivalamide]
IC50 [1, 4]: 0.929 µM
IC50 [2, 7]: 0.533 µM

CC(C)(C)C(=O)Nc1cc(-c2cn3nc(OC4CCOCC4)ccc3n2)ccc1C(F)(F)F [Example 310, N-(5-(6-(tetrahydro-2H-pyran-4-yloxy)imidazo[1,2-b]pyridazin-2-yl)-2-(trifluoromethyl)phenyl)pivalamide]
IC50 [1, 4]: 0.721 µM
IC50 [2, 7]: 1.78 µM

CCCC(C)(C)C(=O)Nc1cc(-c2cn3nc(-c4cccnc4C(F)(F)F)ccc3n2)c(F)cc1Cl [Example 662, N-(2-chloro-4-fluoro-5-(6-(2-(trifluoromethyl)pyridin-3-yl)imidazo[1,2-b]pyridazin-2-yl)phenyl)-2,2-dimethylpentanamide]
IC50 [1, 3]: < 0.3 µM
IC50 [1, 4]: 0.039 µM
IC50 [1, 5]: < 0.3 µM
IC50 [2, 6]: < 0.3 µM
IC50 [2, 7]: 0.161 µM

CC(C)(C)C(=O)Nc1cc(-c2cn3nc(N4CCC(F)(F)CC4)ccc3n2)ccc1C(F)(F)F [Example 235, N-(5-(6-(4,4-difluoropiperidin-1-yl)imidazo[1,2-b]pyridazin-2-yl)-2-(trifluoromethyl)phenyl)pivalamide]
IC50 [1, 3]: 0.3 to 3 µM
IC50 [1, 4]: 0.318 µM
IC50 [1, 5]: < 0.3 µM
IC50 [2, 6]: < 0.3 µM
IC50 [2, 7]: 0.271 µM

CCOc1ccc2nc(-c3ccc(CC)c(NC(=O)C(C)(C)C)c3)cn2n1 [Example 283, N-(5-(6-ethoxyimidazo[1,2-b]pyridazin-2-yl)-2-ethylphenyl)pivalamide]
IC50 [1, 3]: 3 to 30 µM
IC50 [1, 4]: 2.23 µM
IC50 [1, 5]: 0.3 to 3 µM
IC50 [2, 6]: 0.3 to 3 µM
IC50 [2, 7]: 1.81 µM

CCN(CC)C(=O)Nc1cc(-c2cn3nc(-c4cccnc4C(F)(F)F)ccc3n2)ccc1Cl [Example 655, 3-(2-chloro-5-(6-(2-(trifluoromethyl)pyridin-3-yl)imidazo[1,2-b]pyridazin-2-yl)phenyl)-1,1-diethylurea]
IC50 [1, 3]: < 0.3 µM
IC50 [1, 4]: 0.023 µM
IC50 [1, 5]: < 0.3 µM
IC50 [2, 6]: < 0.3 µM
IC50 [2, 7]: 0.07 µM

Cc1ccc(-c2nc3ccc(N4CCC(O)CC4)nn3c2C)cc1NC(=O)C(C)(C)C [Example 313, N-(5-(6-(4-hydroxypiperidin-1-yl)-3-methylimidazo[1,2-b]pyridazin-2-yl)-2-methylphenyl)pivalamide]
IC50 [1, 3]: 0.3 to 3 µM
IC50 [1, 4]: 0.826 µM
IC50 [1, 5]: 0.3 to 3 µM
IC50 [2, 6]: 0.3 to 3 µM
IC50 [2, 7]: 0.636 µM

Cc1ccc(-c2cn3nc(-c4ccnc(F)c4)ccc3n2)cc1NC(=O)C(C)(C)C [Example 365, N-(5-(6-(2-fluoropyridin-4-yl)imidazo[1,2-b]pyridazin-2-yl)-2-methylphenyl)pivalamide]
IC50 [1, 4]: 0.124 µM
IC50 [2, 7]: 0.36 µM

CC(C)(C)C(=O)Nc1cc(-c2cn3nc(N4CCSCC4)ccc3n2)ccc1C(F)(F)F [Example 355, N-(5-(6-thiomorpholinoimidazo[1,2-b]pyridazin-2-yl)-2-(trifluoromethyl)phenyl)pivalamide]
IC50 [1, 4]: 0.142 µM
IC50 [2, 7]: 0.24 µM

CSCCNc1ccc2nc(-c3ccc(C(F)(F)F)c(NC(=O)C(C)(C)C)c3)cn2n1 [Example 300, N-(5-(6-(2-(methylthio)ethylamino)imidazo[1,2-b]pyridazin-2-yl)-2-(trifluoromethyl)phenyl)pivalamide]
IC50 [1, 3]: < 0.3 µM
IC50 [1, 4]: 0.535 µM
IC50 [1, 5]: 0.3 to 3 µM
IC50 [2, 6]: 0.3 to 3 µM
IC50 [2, 7]: 0.703 µM

Cc1ccc(-c2cn3nc(-c4cccc(F)c4C(F)(F)F)ccc3n2)cc1NC(=O)C(C)(C)C [Example 395, N-(5-(6-(3-fluoro-2-(trifluoromethyl)phenyl)imidazo[1,2-b]pyridazin-2-yl)-2-methylphenyl)pivalamide]
IC50 [1, 4]: 0.015 µM
IC50 [2, 7]: 0.087 µM

Cc1ccc(-c2cn3nc(-c4ccc(Cl)cn4)ccc3n2)cc1NC(=O)C(C)(C)C [Example 366, N-(5-(6-(5-chloropyridin-2-yl)imidazo[1,2-b]pyridazin-2-yl)-2-methylphenyl)pivalamide]
IC50 [1, 4]: 0.227 µM
IC50 [2, 7]: 1.1 µM

CCOc1ccc2nc(-c3ccc(C(F)(F)F)c(NC(=O)C4CCCCC4)c3)cn2n1 [Example 190, N-(5-(6-ethoxyimidazo[1,2-b]pyridazin-2-yl)-2-(trifluoromethyl)phenyl)cyclohexanecarboxamide]
IC50 [1, 4]: > 10 µM
IC50 [2, 7]: 5.25 µM

Cc1ccc(-c2cn3nc(NS(=O)(=O)c4cccc(C=CC(=O)NO)c4)ccc3n2)cc1NC(=O)C(C)(C)C [compound 606]
IC50 [1, 4]: 0.066 µM
IC50 [2, 7]: 0.484 µM

CCc1ccc(-c2cn3nc(-c4cccnc4C(F)(F)F)ccc3n2)cc1NC(=O)C(C)(C)C(F)(F)F [Example 690, N-(2-ethyl-5-(6-(2-(trifluoromethyl)pyridin-3-yl)imidazo[1,2-b]pyridazin-2-yl)phenyl)-3,3,3-trifluoro-2,2-dimethylpropanamide]
IC50 [1, 4]: 0.059 µM
IC50 [2, 7]: 0.225 µM

Cc1ccc(-c2cn3nc(NC(=O)c4cccc(C=CC(=O)NO)c4)ccc3n2)cc1NC(=O)C(C)(C)C [compound 605]
IC50 [1, 3]: < 0.3 µM
IC50 [1, 4]: 0.03 µM
IC50 [1, 5]: < 0.3 µM
IC50 [2, 6]: < 0.3 µM
IC50 [2, 7]: 0.062 µM

CC(C)(C)C(=O)Nc1cc(-c2cn3nc(N4CCCC(C(F)(F)F)C4)ccc3n2)ccc1C(F)(F)F (centres unmarked) [Example 356, N-(2-(trifluoromethyl)-5-(6-(3-(trifluoromethyl)piperidin-1-yl)imidazo[1,2-b]pyridazin-2-yl)phenyl)pivalamide]
IC50 [1, 4]: 0.309 µM
IC50 [2, 7]: 0.514 µM
